# Source: US10314815B2, “Polymorph of granaticin B” (Sloan-Kettering Institute for Cancer Research, priority 2014, dated 2019)
# What was measured:
# Format in all cases: physicochemical
# [1] = Chemical degradation under acidic conditions observed by HPLC; conditions: acidic conditions (pH<4), ambient temperature
# Source text: The degradation is caused by hydrolysis of the glycosidic bond, forming Granaticin A, the biosynthetic precursor of MSK-777. Consistently, in a time dependent HPLC experiment a simultaneous increase of Granaticin A chromatographic areas and decrease of Granaticin B areas is observed. The hydrolysis experiment and the almost identical UV spectra indicate that MSK-777 (Granaticin B) and Granatioin A share the same core structure and chromophore. Therefore the structural difference between Granaticin A and MSK-777 arises from a hydrolysable part (sugar moiety) of the latter compound.
# [2] = UV-Vis pH-dependent colour change (bathochromic shift) of MSK-777; conditions: colour change red to blue, basic conditions; read-out: approximate averaged pKa values of the acidic phenol protons (inflection point of colour change)
# Source text: These absorptions indicate a benzoisochromanequinones (BIQ) chromophore. The broad adsorption in the visible region (around 527 nm) is responsible for the intense red color of the substance.
# Under basic conditions (pH>8) a bathochromic shift of Vis-absorption (ca. 40 nm) is observed, indicating ionization of slightly acidic phenolic protons. This pH dependent indicatory behavior is characteristic to the BIQ chromophore and is visually observed as the solution turns from red to blue.
# [3] = Stability of crystalline Form A compared with amorphous Compound 1; conditions: crystalline Form A vs amorphous; traditional purification process
# Hygroscopicity of Form A = experiment: Hygroscopicity of Form A
SMILES,degradation (hydrolysis of the glycosidic bond forming Granaticin A) [1],pKa [2],stability of solid form [3],hygroscopicity (Hygroscopicity of Form A)
"CC1OC2CC(=O)OC2C2=C1C(=O)c1c(O)c3c(c(O)c1C2=O)C1CC(OC2CCC(O)C(C)O2)C3(O)C(C)O1 (centres unmarked) [MSK-777, granaticin B]",slow degradation,~8.5,–,–
"CC1OC2CC(=O)OC2C2=C1C(=O)c1c(O)c3c(c(O)c1C2=O)C1CC(OC2CCC(O)C(C)O2)C3(O)C(C)O1 (centres unmarked) [Amorphous Compound 1, granaticin B]",–,–,less stable and prone to degradation,–
"CC1OC2CC(=O)OC2C2=C1C(=O)c1c(O)c3c(c(O)c1C2=O)C1CC(OC2CCC(O)C(C)O2)C3(O)C(C)O1 (centres unmarked) [Form A of Compound 1, granaticin B]",–,–,more stable than amorphous Compound 1,substantially non-hygroscopic
